Measured values published in publication PMC7006680, “Sulfocoumarins as dual inhibitors of human carbonic anhydrase isoforms IX/XII and of human thioredoxin reductase” (Journal of Enzyme Inhibition and Medicinal Chemistry, 2020).

What was measured:
TrxR = biological target: T1, TrxR (Homo sapiens, UniProt Q16881); experiment: TrxR activity by DTNB reduction assay in SHSY5Y cell lysate; format: biochemical
T1 sequence (Q16881 1-649): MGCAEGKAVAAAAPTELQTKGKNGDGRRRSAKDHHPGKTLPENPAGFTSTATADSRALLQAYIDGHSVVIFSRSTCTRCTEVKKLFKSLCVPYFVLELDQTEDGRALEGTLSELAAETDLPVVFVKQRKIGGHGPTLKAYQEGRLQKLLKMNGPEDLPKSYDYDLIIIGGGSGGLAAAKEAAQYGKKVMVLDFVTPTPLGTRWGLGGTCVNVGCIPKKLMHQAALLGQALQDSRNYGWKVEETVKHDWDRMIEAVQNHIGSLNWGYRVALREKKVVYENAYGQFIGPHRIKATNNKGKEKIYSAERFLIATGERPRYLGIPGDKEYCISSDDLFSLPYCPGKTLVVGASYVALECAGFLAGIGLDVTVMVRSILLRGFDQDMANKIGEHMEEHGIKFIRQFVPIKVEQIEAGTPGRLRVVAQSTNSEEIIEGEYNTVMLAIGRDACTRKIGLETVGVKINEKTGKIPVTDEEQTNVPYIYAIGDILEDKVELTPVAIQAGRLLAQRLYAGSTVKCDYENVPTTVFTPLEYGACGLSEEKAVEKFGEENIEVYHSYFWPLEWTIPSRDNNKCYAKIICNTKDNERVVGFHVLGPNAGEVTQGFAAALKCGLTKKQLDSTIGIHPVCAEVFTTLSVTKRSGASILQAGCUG
Method: Determination of TrxR activity in SHSY5Y cell lysate. TrxR activity in cell lysate was measured in 96-well plates using previously described methods[27]^,[28]. For TrxR activity measurement, compounds of different concentrations were incubated with 50 µg of cell lysate and 200 µM NADPH in a volume of 100 µL of 50 mM Tris–HCl and 1 mM EDTA, pH 7.5 (TE buffer), for different time points in 96-well plates at room temperature. […] TrxR activity was calculated as a percentage of enzyme activity of that of DMSO vehicle treated sample.

hCA II = biological target: T2, hCA II (Homo sapiens, UniProt P00918); experiment: Stopped-flow CO2 hydration CA inhibition assay, hCA II; format: biochemical; settings: recombinant enzyme, 15 min pre-incubation
T2 construct: made in house
Method: (§1) An Applied Photophysics stopped-flow instrument has been used for assaying the CA catalysed CO2 hydration activity[22]. Phenol red (at a concentration of 0.2 mM) has been used as indicator, working at the absorbance maximum of 557 nm, with 20 mM Tris (pH 8.3) as buffer, and 20 mM Na2SO4 (for maintaining constant the ionic strength), following the initial rates of the CA-catalysed CO2 hydration reaction for a period of 10–100 s. The CO2 concentrations ranged from 1.7 to 17 mM for the determination of the kinetic parameters and inhibition constants. […] The uncatalysed rates were determined in the same manner and subtracted from the total observed rates. Stock solutions of inhibitor (0.1 mM) were prepared in distilled-deionised water and dilutions up to 0.005 nM were done thereafter with the assay buffer. Inhibitor and enzyme solutions were pre-incubated together for 15 min at room temperature prior to assay, in order to allow for the formation of the E–I complex. The inhibition constants were obtained by non-linear least-squares methods using PRISM 3 and the Cheng-Prusoff equation, as reported earlier, and represent the mean from at least three different determinations.

hCA I = biological target: T3, hCA I (Homo sapiens, UniProt P00915); experiment: Stopped-flow CO2 hydration CA inhibition assay, hCA I; format: biochemical; settings: recombinant enzyme, 15 min pre-incubation
T3 construct: made in house
Method: as §1

[1] = test system: SHSY5Y (human neuroblastoma); experiment: MTT cytotoxicity assay, SHSY5Y; format: cell-based; settings: 48 h incubation
Method: (§2) About 2000–4000 cells per well (depending on line nature) were placed in 96-well plates and after 24 h compounds were added to the wells. Untreated cells were used as a control. The plates were incubated for 48 h, 37 °C, and 5% CO2. The number of surviving cells was determined using 3-(4,5-dimethylthiazol-2-yl)-2,5-diphenyltetrazolinium bromide (MTT). MTT-test: after incubating culture medium was removed and 200 µL fresh medium with 20 µL MTT (2 mg/mL in HBSS) was added in each well of the plate. After incubation (3 h, 37 °C, 5% CO2), the medium with MTT was removed and 200 µL DMSO were added at once to each sample. The samples were tested at 540 nm on Thermo Scientific Multiskan EX microplate photometer. The half-maximal inhibitory concentration (IC50) of each compound was calculated using Graph Pad Prism® 3.0 (GraphPad Software, La Jolla, CA).

[2] = test system: HT-1080 (human fibrosarcoma); experiment: MTT cytotoxicity assay, HT-1080; format: cell-based
Method: as §2

[3] = test system: MCF-7 (breast adenocarcinoma); experiment: MTT cytotoxicity assay, MCF-7; format: cell-based, human
Method: as §2

hCA IX = biological target: T4, hCA IX (Homo sapiens, UniProt Q16790); experiment: Stopped-flow CO2 hydration CA inhibition assay, hCA IX; format: biochemical; settings: recombinant enzyme, 15 min pre-incubation
T4 construct: made in house
Method: as §1

hCA XII = biological target: T5, hCA XII (Homo sapiens, UniProt O43570); experiment: Stopped-flow CO2 hydration CA inhibition assay, hCA XII; format: biochemical; settings: recombinant enzyme, 15 min pre-incubation
T5 construct: made in house
Method: as §1

[4] = Homo sapiens, HT-1080, 48 h incubation
[5] = Homo sapiens, MCF7, 48 h incubation

T3 sequence (P00915 whole entry): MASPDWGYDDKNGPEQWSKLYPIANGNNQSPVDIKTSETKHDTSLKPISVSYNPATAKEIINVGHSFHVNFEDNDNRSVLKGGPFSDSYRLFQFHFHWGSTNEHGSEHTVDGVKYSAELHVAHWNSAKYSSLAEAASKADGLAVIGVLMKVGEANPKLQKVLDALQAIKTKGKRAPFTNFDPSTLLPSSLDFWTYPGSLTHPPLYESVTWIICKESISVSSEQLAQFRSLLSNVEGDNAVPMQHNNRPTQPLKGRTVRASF
T5 sequence (O43570 25-354): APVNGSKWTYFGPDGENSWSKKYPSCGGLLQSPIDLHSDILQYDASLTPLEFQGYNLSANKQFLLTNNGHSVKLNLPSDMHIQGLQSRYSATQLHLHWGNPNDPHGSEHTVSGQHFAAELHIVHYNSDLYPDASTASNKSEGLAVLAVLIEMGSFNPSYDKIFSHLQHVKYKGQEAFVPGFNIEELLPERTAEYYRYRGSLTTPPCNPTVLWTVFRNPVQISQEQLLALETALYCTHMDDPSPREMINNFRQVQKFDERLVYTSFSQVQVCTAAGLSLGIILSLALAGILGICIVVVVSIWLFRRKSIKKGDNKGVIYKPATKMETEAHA

| Molecule | IC50 (TrxR) [µM] | Ki (hCA II) [µM] | Ki (hCA I) [µM] | IC50 [1] [µM] | IC50 ([2]; 48 h incubation) [µM] | IC50 ([3]; 48 h incubation) [µM] | IC50 ([1]; Homo sapiens, SH-SY5Y) [µM] | IC50 [2, 4] [µM] | Ki (hCA IX) [µM] | IC50 [3, 5] [µM] | Ki (hCA XII) [µM] |
| --- | --- | --- | --- | --- | --- | --- | --- | --- | --- | --- | --- |
| 1-(2,2-Dioxido-1,2-benzoxathiin-6-yl)-4-(4-fluorophenyl)-1H-1,2,3-triazole [Compound 1b] | 40 | > 10 | > 10 | – | – | – | – | – | – | – | – |
| 1-(2,2-Dioxido-1,2-benzoxathiin-6-yl)-5-(4-fluorophenyl)-1H-1,2,3-triazole [Compound 1d] | 125 | > 10 | > 10 | 18.5 | 7.9 | 50 | – | – | – | – | – |
| O=S1(=O)C=Cc2cc(-n3cc(-c4ccc(Cl)cc4)nn3)ccc2O1 [Compound 1a, 4-(4-Chlorophenyl)-1-(2,2-dioxido-1,2-benzoxathiin-6-yl)-1H-1,2,3-triazole] | – | – | – | – | – | – | 22 | 11 | 0.0078 | 1.8 | 0.0177 |
| O=S1(=O)C=Cc2cc(-c3nnnn3-c3ccccc3)ccc2O1 [Compound 1c, 5-(2,2-Dioxido-1,2-benzoxathiin-6-yl)-1-phenyl-1H-tetrazole] | – | – | – | – | – | – | 18.4 | 12.3 | 0.0085 | 101 | 0.0071 |
